{"source": "paper PMC5218480", "about": "(PLoS ONE, 2017)", "system": "MV-4-11 cells", "assay": "Gene expression microarray analysis (Affymetrix PrimeView) and GSEA", "format": "cell-based, human", "parameters": "RFU PODN (11730768_x_at) / Fold change /veh PODN (11730768_x_at) / RFU LINC00158 (11744669_a_at) / Fold change /veh LINC00158 (11744669_a_at) / RFU DUSP10 (11751237_a_at) / Fold change /veh DUSP10 (11751237_a_at) / RFU ID3 (11757404_x_at) / Fold change /veh ID3 (11757404_x_at) / RFU PLEKHG5 (11737974_s_at) / Fold change /veh PLEKHG5 (11737974_s_at) / RFU LRRC4B (11730491_at) / Fold change /veh LRRC4B (11730491_at) / RFU GIMAP4 (11747438_a_at) / Fold change /veh GIMAP4 (11747438_a_at) / RFU KRT8 (11758183_x_at) / Fold change /veh KRT8 (11758183_x_at) / RFU CNN1 (11734310_a_at) / Fold change /veh CNN1 (11734310_a_at) / RFU VPS37D (11726825_at) / Fold change /veh VPS37D (11726825_at) / RFU C10orf10 (11716522_x_at) / Fold change /veh C10orf10 (11716522_x_at) / RFU KIR2DL2 /// KIR2DL4 /// KIR2DL5A /// KIR2DL5B /// KIR2DS1 /// KIR2DS2 /// KIR2DS3 /// KIR2DS4 /// KIR3DL3 /// KIR3DL3 /// KIR3DS1 (11738374_at) / Fold change /veh KIR2DL2 /// KIR2DL4 /// KIR2DL5A /// KIR2DL5B /// KIR2DS1 /// KIR2DS2 /// KIR2DS3 /// KIR2DS4 /// KIR3DL3 /// KIR3DL3 /// KIR3DS1 (11738374_at) / RFU C1QL1 (11718748_at) / Fold change /veh C1QL1 (11718748_at) / RFU TMPRSS4 (11747572_a_at) / Fold change /veh TMPRSS4 (11747572_a_at) / RFU HAMP (11756126_x_at) / Fold change /veh HAMP (11756126_x_at) / RFU RNFT2 (11725882_a_at) / Fold change /veh RNFT2 (11725882_a_at) / RFU NR4A2 (11747474_a_at) / Fold change /veh NR4A2 (11747474_a_at) / RFU ABCC12 (11746883_a_at) / Fold change /veh ABCC12 (11746883_a_at) / RFU TMEM136 (11760407_x_at) / Fold change /veh TMEM136 (11760407_x_at) / RFU CLDN22 /// WWC2 (11732394_at) / Fold change /veh CLDN22 /// WWC2 (11732394_at) / RFU HLA-DPB1 (11760878_x_at) / Fold change /veh HLA-DPB1 (11760878_x_at) / RFU SPINT1 (11716480_a_at) / Fold change /veh SPINT1 (11716480_a_at) / RFU GAP43 (11754022_s_at) / Fold change /veh GAP43 (11754022_s_at) / RFU A4GNT (11735810_at) / Fold change /veh A4GNT (11735810_at) / RFU PRB3 (11715151_x_at) / Fold change /veh PRB3 (11715151_x_at) / RFU TUBB4B (11761932_at) / Fold change /veh TUBB4B (11761932_at) / RFU CAPN14 (11732068_a_at) / Fold change /veh CAPN14 (11732068_a_at) / RFU TMCC2 (11721928_a_at) / Fold change /veh TMCC2 (11721928_a_at) / RFU IRGQ (11745062_a_at) / Fold change /veh IRGQ (11745062_a_at) / RFU FAM174B (11720279_a_at) / Fold change /veh FAM174B (11720279_a_at) / RFU TMPRSS4 (11748680_a_at) / Fold change /veh TMPRSS4 (11748680_a_at) / RFU FAM212B (11763350_a_at) / Fold change /veh FAM212B (11763350_a_at) / RFU PLEKHG5 (11743358_a_at) / Fold change /veh PLEKHG5 (11743358_a_at) / RFU ZSCAN30 (11745921_a_at) / Fold change /veh ZSCAN30 (11745921_a_at) / RFU CMKLR1 (11741424_a_at) / Fold change /veh CMKLR1 (11741424_a_at) / RFU LOC101060620 /// MAPK8IP1 (11723275_at) / Fold change /veh LOC101060620 /// MAPK8IP1 (11723275_at) / RFU SPTSSB (11747773_x_at) / Fold change /veh SPTSSB (11747773_x_at) / RFU PRSS12 (11739890_at) / Fold change /veh PRSS12 (11739890_at) / RFU BIN1 (11741810_x_at) / Fold change /veh BIN1 (11741810_x_at) / RFU WNT11 (11732464_a_at) / Fold change /veh WNT11 (11732464_a_at) / RFU C10orf10 (11716521_a_at) / Fold change /veh C10orf10 (11716521_a_at) / RFU C5orf56 (11738089_at) / Fold change /veh C5orf56 (11738089_at) / RFU CYB561 (11721691_x_at) / Fold change /veh CYB561 (11721691_x_at) / RFU ANKRD19P (11752326_a_at) / Fold change /veh ANKRD19P (11752326_a_at) / RFU OR2T12 /// OR2T33 /// OR2T8 (11738714_s_at) / Fold change /veh OR2T12 /// OR2T33 /// OR2T8 (11738714_s_at) / RFU VCAN (11748164_a_at) / Fold change /veh VCAN (11748164_a_at) / RFU JSRP1 (11732532_at) / Fold change /veh JSRP1 (11732532_at) / RFU KRTAP10-11 (11738290_x_at) / Fold change /veh KRTAP10-11 (11738290_x_at) / RFU MYO3A (11730013_a_at) / Fold change /veh MYO3A (11730013_a_at) / RFU EBF3 (11725865_a_at) / Fold change /veh EBF3 (11725865_a_at) / RFU CAMK2N1 (11719241_x_at) / Fold change /veh CAMK2N1 (11719241_x_at) / RFU C5orf56 (11738088_a_at) / Fold change /veh C5orf56 (11738088_a_at) / RFU OLFML3 (11715873_a_at) / Fold change /veh OLFML3 (11715873_a_at) / RFU LOC100653217 /// NTM (11731650_a_at) / Fold change /veh LOC100653217 /// NTM (11731650_a_at) / RFU MAPK11 (11762145_a_at) / Fold change /veh MAPK11 (11762145_a_at) / RFU FIZ1 (11724087_x_at) / Fold change /veh FIZ1 (11724087_x_at) / RFU OASL (11726364_x_at) / Fold change /veh OASL (11726364_x_at) / RFU SOX15 (11748057_x_at) / Fold change /veh SOX15 (11748057_x_at) / RFU CD79A (11719716_a_at) / Fold change /veh CD79A (11719716_a_at) / RFU HIST1H1D (11736915_at) / Fold change /veh HIST1H1D (11736915_at) / RFU CASKIN2 (11723855_a_at) / Fold change /veh CASKIN2 (11723855_a_at) / RFU LOC730098 (11760151_x_at) / Fold change /veh LOC730098 (11760151_x_at) / RFU OR4N2 (11742367_at) / Fold change /veh OR4N2 (11742367_at) / RFU PRRT2 (11749266_a_at) / Fold change /veh PRRT2 (11749266_a_at) / RFU SNX32 (11753110_a_at) / Fold change /veh SNX32 (11753110_a_at) / RFU CDHR5 (11726645_a_at) / Fold change /veh CDHR5 (11726645_a_at) / RFU RCAN1 (11760418_a_at) / Fold change /veh RCAN1 (11760418_a_at) / RFU FAM167A (11723789_a_at) / Fold change /veh FAM167A (11723789_a_at) / RFU FAM26E (11764081_at) / Fold change /veh FAM26E (11764081_at) / RFU ISYNA1 (11749810_s_at) / Fold change /veh ISYNA1 (11749810_s_at) / RFU ACY1 (11761880_at) / Fold change /veh ACY1 (11761880_at) / RFU 11764098_at / Fold change /veh 11764098_at / RFU SAMD14 (11745864_x_at) / Fold change /veh SAMD14 (11745864_x_at) / RFU NPB (11741838_a_at) / Fold change /veh NPB (11741838_a_at) / RFU TMPRSS6 (11731388_a_at) / Fold change /veh TMPRSS6 (11731388_a_at) / RFU KRTAP10-2 (11738614_at) / Fold change /veh KRTAP10-2 (11738614_at) / RFU ARHGAP8 /// PRR5-ARHGAP8 (11727945_x_at) / Fold change /veh ARHGAP8 /// PRR5-ARHGAP8 (11727945_x_at) / RFU KRTAP5-7 /// NADSYN1 (11734609_at) / Fold change /veh KRTAP5-7 /// NADSYN1 (11734609_at) / RFU RASL12 (11751679_a_at) / Fold change /veh RASL12 (11751679_a_at) / RFU CDKN2B (11736163_a_at) / Fold change /veh CDKN2B (11736163_a_at) / RFU PRF1 (11729649_at) / Fold change /veh PRF1 (11729649_at) / RFU, ZNF638 /// ZNF638-IT1 / Fold change vs veh, ZNF638 /// ZNF638-IT1 / RFU, PANK3 / Fold change vs veh, PANK3 / RFU, SH3YL1 / Fold change vs veh, SH3YL1 / RFU, ZEB2 / Fold change vs veh, ZEB2 / RFU, NRIP1 / Fold change vs veh, NRIP1 / RFU, PTTG1IP / Fold change vs veh, PTTG1IP / RFU, CAPN2 / Fold change vs veh, CAPN2 / RFU, MED14 / Fold change vs veh, MED14 / RFU, SNORA58 / Fold change vs veh, SNORA58 / RFU, C1orf63 / Fold change vs veh, C1orf63 / RFU, LRRFIP1 / Fold change vs veh, LRRFIP1 / RFU, NDUFAF7 / Fold change vs veh, NDUFAF7 / RFU, SLC12A2 / Fold change vs veh, SLC12A2 / RFU, IBTK / Fold change vs veh, IBTK / RFU, ESF1 / Fold change vs veh, ESF1 / Fold change vs veh, TMEM50B / RFU, TAOK1 / Fold change vs veh, TAOK1 / RFU, ACBD3 / Fold change vs veh, ACBD3 / RFU, TMA16 / Fold change vs veh, TMA16 / RFU, RWDD3 / Fold change vs veh, RWDD3 / RFU, BCAT1 / Fold change vs veh, BCAT1 / RFU, EDEM3 / Fold change vs veh, EDEM3 / RFU, TMEM33 / Fold change vs veh, TMEM33 / RFU, WDR75 / Fold change vs veh, WDR75 / RFU, AHCTF1 / Fold change vs veh, AHCTF1 / RFU, TFRC / Fold change vs veh, TFRC / RFU, ZDHHC17 / Fold change vs veh, ZDHHC17 / RFU, NOM1 / Fold change vs veh, NOM1 / RFU, ARL8B / Fold change vs veh, ARL8B / RFU, ZBTB11 / Fold change vs veh, ZBTB11 / RFU, TAMM41 / Fold change vs veh, TAMM41 / RFU, KIAA1704 /// LOC100996395 / Fold change vs veh, KIAA1704 /// LOC100996395 / RFU, ING1 / Fold change vs veh, ING1 / RFU, TRMT61B / Fold change vs veh, TRMT61B / RFU, FUBP3 / Fold change vs veh, FUBP3 / RFU, TP53 / Fold change vs veh, TP53 / RFU, TNKS2 / Fold change vs veh, TNKS2 / RFU, ZFP14 / Fold change vs veh, ZFP14 / RFU, ACTR2 / Fold change vs veh, ACTR2 / RFU, PPP3R1 / Fold change vs veh, PPP3R1 / RFU, PIK3R1 / Fold change vs veh, PIK3R1 / RFU, HNRNPA1 / Fold change vs veh, HNRNPA1 / RFU, RNF170 / Fold change vs veh, RNF170 / RFU, ZNF28 / Fold change vs veh, ZNF28 / RFU, RNGTT / Fold change vs veh, RNGTT / RFU, OGT / Fold change vs veh, OGT / RFU, BRD1 / Fold change vs veh, BRD1 / RFU, MARS / Fold change vs veh, MARS / RFU, ZNF655 / Fold change vs veh, ZNF655 / RFU, FAHD1 / Fold change vs veh, FAHD1 / RFU, BDP1 / Fold change vs veh, BDP1 / RFU, LRRCC1 / Fold change vs veh, LRRCC1 / RFU, ARID1A / Fold change vs veh, ARID1A / RFU, ZNF146 / Fold change vs veh, ZNF146 / RFU, ZNF330 / Fold change vs veh, ZNF330 / RFU, GPN3 / Fold change vs veh, GPN3 / RFU, C9orf123 / Fold change vs veh, C9orf123 / RFU, N4BP2L2 / Fold change vs veh, N4BP2L2 / RFU, ARFIP1 / Fold change vs veh, ARFIP1 / RFU, FAM179B / Fold change vs veh, FAM179B / RFU, BCL10 / Fold change vs veh, BCL10 / RFU, UHRF1BP1L / Fold change vs veh, UHRF1BP1L / RFU, BET1 / Fold change vs veh, BET1 / RFU, CNOT2 / Fold change vs veh, CNOT2 / RFU, ZNF268 / Fold change vs veh, ZNF268 / Fold change vs veh, ZNF507 / RFU, DGCR2 / Fold change vs veh, DGCR2 / RFU, WDSUB1 / Fold change vs veh, WDSUB1 / Fold change vs veh, HSP90B1 /// MIR3652 / RFU, ADSS / Fold change vs veh, ADSS / RFU, GK / Fold change vs veh, GK / RFU, ZNF148 / Fold change vs veh, ZNF148 / RFU, TAF9 / Fold change vs veh, TAF9 / RFU, SLC1A5 / Fold change vs veh, SLC1A5 / RFU, SLMO2 / Fold change vs veh, SLMO2 / RFU, ABCC4 / Fold change vs veh, ABCC4 / RFU, LOC101060439 /// RAP1B / Fold change vs veh, LOC101060439 /// RAP1B / RFU, RFX7 / Fold change vs veh, RFX7 / RFU, GTPBP10 / Fold change vs veh, GTPBP10 / RFU, CNEP1R1 / Fold change vs veh, CNEP1R1 / RFU, BIVM-ERCC5 /// ERCC5 / Fold change vs veh, BIVM-ERCC5 /// ERCC5 / RFU, ILF3 / Fold change vs veh, ILF3 / RFU 11762660_at / Fold change /veh 11762660_at / RFU VCAN (11757783_s_at) / Fold change /veh VCAN (11757783_s_at) / RFU DDX43 (11728927_at) / Fold change /veh DDX43 (11728927_at) / RFU KRT8 (11758188_x_at) / Fold change /veh KRT8 (11758188_x_at) / RFU NKD1 (11759106_at) / Fold change /veh NKD1 (11759106_at) / RFU SRD5A1 (11742802_a_at) / Fold change /veh SRD5A1 (11742802_a_at) / RFU TPSAB1 /// TPSB2 (11721975_s_at) / Fold change /veh TPSAB1 /// TPSB2 (11721975_s_at) / RFU GSTM3 (11746129_a_at) / Fold change /veh GSTM3 (11746129_a_at) / RFU IL23R (11737362_x_at) / Fold change /veh IL23R (11737362_x_at) / RFU TMEM51 (11727254_a_at) / Fold change /veh TMEM51 (11727254_a_at) / RFU PIWIL2 (11732686_x_at) / Fold change /veh PIWIL2 (11732686_x_at) / RFU ORM1 (11744905_x_at) / Fold change /veh ORM1 (11744905_x_at) / RFU CCDC152 (11743942_at) / Fold change /veh CCDC152 (11743942_at) / RFU ECM1 (11717891_a_at) / Fold change /veh ECM1 (11717891_a_at) / RFU IL23R (11748794_a_at) / Fold change /veh IL23R (11748794_a_at) / RFU TNFAIP8L3 (11732012_x_at) / Fold change /veh TNFAIP8L3 (11732012_x_at) / RFU MBOAT4 (11741988_at) / Fold change /veh MBOAT4 (11741988_at) / RFU 11764193_at / Fold change /veh 11764193_at / RFU TMEM53 (11763286_at) / Fold change /veh TMEM53 (11763286_at) / RFU MAGEB2 (11727129_at) / Fold change /veh MAGEB2 (11727129_at) / RFU TMEM200A (11744735_a_at) / Fold change /veh TMEM200A (11744735_a_at) / RFU CCDC152 (11751479_a_at) / Fold change /veh CCDC152 (11751479_a_at) / RFU FAM211A (11726209_a_at) / Fold change /veh FAM211A (11726209_a_at) / RFU RGS16 (11746705_a_at) / Fold change /veh RGS16 (11746705_a_at) / RFU VCAN (11755009_s_at) / Fold change /veh VCAN (11755009_s_at) / RFU RHOB (11743442_s_at) / Fold change /veh RHOB (11743442_s_at) / RFU RGS16 (11720943_a_at) / Fold change /veh RGS16 (11720943_a_at) / RFU RGS16 (11720944_at) / Fold change /veh RGS16 (11720944_at) / RFU, VPS4B / Fold change vs veh, VPS4B / RFU, CREB1 / Fold change vs veh, CREB1 / RFU, DNAJC13 / Fold change vs veh, DNAJC13 / RFU, GNAQ / Fold change vs veh, GNAQ / RFU, CDK5R1 / Fold change vs veh, CDK5R1 / RFU, ZRANB3 / Fold change vs veh, ZRANB3 / RFU, CUL4A / Fold change vs veh, CUL4A / RFU, CCNY / Fold change vs veh, CCNY / RFU, UFL1 / Fold change vs veh, UFL1 / RFU, COG3 / Fold change vs veh, COG3 / RFU, DIAPH2 / Fold change vs veh, DIAPH2 / RFU, SKA2 / Fold change vs veh, SKA2 / RFU, AFF3 / Fold change vs veh, AFF3 / RFU, LMF1 / Fold change vs veh, LMF1 / RFU, IPO11 / Fold change vs veh, IPO11 / RFU, DFFB / Fold change vs veh, DFFB / RFU, FOXP1 / Fold change vs veh, FOXP1 / RFU, CARD8 / Fold change vs veh, CARD8 / RFU, STRN3 / Fold change vs veh, STRN3 / RFU, ADK / Fold change vs veh, ADK / RFU, RASSF2 / Fold change vs veh, RASSF2 / RFU, WIPF1 / Fold change vs veh, WIPF1 / RFU, LARP1B / Fold change vs veh, LARP1B / RFU, RASA1 / Fold change vs veh, RASA1 / RFU, RB1 / Fold change vs veh, RB1 / RFU, PPFIA1 / Fold change vs veh, PPFIA1 / RFU, MAT2A / Fold change vs veh, MAT2A / RFU, CCT5 / Fold change vs veh, CCT5 / RFU, WDR92 / Fold change vs veh, WDR92 / RFU, CUX1 / Fold change vs veh, CUX1 / RFU, TTC7A / Fold change vs veh, TTC7A / RFU, TMEM135 / Fold change vs veh, TMEM135 / RFU, DEPTOR / Fold change vs veh, DEPTOR / RFU, CPM / Fold change vs veh, CPM / RFU, DNAJB6 / Fold change vs veh, DNAJB6 / RFU, CACNA2D3 / Fold change vs veh, CACNA2D3 / RFU, DTX4 / Fold change vs veh, DTX4 / RFU, TFCP2 / Fold change vs veh, TFCP2 / RFU, GMCL1 /// GMCL1P1 / Fold change vs veh, GMCL1 /// GMCL1P1 / RFU, AEBP2 / Fold change vs veh, AEBP2 / RFU, SNHG1 /// SNORD22 /// SNORD25 /// SNORD26 /// SNORD27 /// SNORD28 /// SNORD29 /// SNORD31 / Fold change vs veh, SNHG1 /// SNORD22 /// SNORD25 /// SNORD26 /// SNORD27 /// SNORD28 /// SNORD29 /// SNORD31 / Fold change (Aza/veh), C12orf56 (ProbeSet 11735607_a_at) / Fold change (ACY-1035/veh), C12orf56 (ProbeSet 11735607_a_at) / Fold change (Aza/veh), FGFR1OP (ProbeSet 11751329_s_at) / Fold change (ACY-1035/veh), FGFR1OP (ProbeSet 11751329_s_at) / Fold change (Aza/veh), VPS36 (ProbeSet 11739960_a_at) / Fold change (ACY-1035/veh), VPS36 (ProbeSet 11739960_a_at) / RFU SYPL1 (11715823_x_at) / Fold change /veh SYPL1 (11715823_x_at) / RFU IGFBP7 (11715501_s_at) / Fold change /veh IGFBP7 (11715501_s_at) / RFU REEP3 (11722064_at) / Fold change /veh REEP3 (11722064_at) / RFU IGLL1 (11728026_x_at) / Fold change /veh IGLL1 (11728026_x_at): dose or concentration left out as unconfirmed", "settings": "MV-4-11 cells, 48 hours", "data": [{"molecule": "Nc1ccc(-c2cccs2)cc1NC(=O)c1ccc2c(c1)cc(C1CC1)n2CCN1CCOCC1", "note": "[ACY-1035]", "values": [{"measurement": "Fold change /veh IRGQ (11745062_a_at)", "result": 0.91}]}]}
